Tests used:
human recombinant MAGL = human recombinant MAGL (Homo sapiens (Human), UniProt Q99685); assay: In vitro inhibition of MAGL activity (inhibitor screening kit, 4-nitrophenylacetate); format: biochemical; settings: human recombinant MAGL
Description: The inhibitory effect of the compounds on activity of human recombinant MAGL was also studied using a commercial inhibitor screening kit (Cayman Chemicals). In brief, MAGL hydrolyzes 4-nitrophenylacetate resulting in a yellow product, 4-nitrophenol with an absorbance at 405-412 nm, while the inhibitor will inhibit the MAGL activity and thus reduce the yellow signal. The absorbance of the yellow product can be analyzed using the plate reader. Inhibition is calculated as a percentage of the treated sample over the non-treated MAGL control based on the signal values.

human recombinant FAAH = human recombinant FAAH (Homo sapiens (Human), UniProt O00519); assay: In vitro inhibition of FAAH activity (fluorescent inhibitor screening kit, AMC arachidonoyl amide); format: biochemical; settings: human recombinant FAAH; read-out: Inhibition on FAAH activity (IC50)
Source text: The inhibitory effect of compounds of Formula (I-IV) on the activity of human recombinant FAAH was studied using a commercial inhibitor screening kit (Cayman Chemicals, Godlewski et al., 2010 [19]). In brief, FAAH hydrolyzes AMC arachidonoyl amide resulting in the release of the fluorescent product, while the inhibitor will inhibit the FAAH activity and thus reduce the fluorescent signal. The resulting fluorophore can be analyzed using an excitation wavelength of 340-360 nm and an emission wavelength of 450-465 nm by a plate reader (Synergy H1, Biotek). Inhibition is calculated as a percentage of the treated sample over the non-treated control based on the signal values, and where possible, a range of concentrations of compounds was tested to find the IC50 values (i.e. the concentration of compound that inhibited 50% FAAH activity).

Sequence of human recombinant MAGL (Q99685 whole entry): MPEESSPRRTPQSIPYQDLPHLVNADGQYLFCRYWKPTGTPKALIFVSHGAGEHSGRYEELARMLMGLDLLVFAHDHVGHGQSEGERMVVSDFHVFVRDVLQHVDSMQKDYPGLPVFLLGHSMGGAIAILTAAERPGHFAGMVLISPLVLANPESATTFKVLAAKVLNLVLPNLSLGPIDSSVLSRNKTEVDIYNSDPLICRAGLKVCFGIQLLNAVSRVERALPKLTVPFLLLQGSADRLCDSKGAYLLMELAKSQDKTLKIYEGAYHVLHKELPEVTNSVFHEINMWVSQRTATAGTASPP
Sequence of human recombinant FAAH (O00519 whole entry): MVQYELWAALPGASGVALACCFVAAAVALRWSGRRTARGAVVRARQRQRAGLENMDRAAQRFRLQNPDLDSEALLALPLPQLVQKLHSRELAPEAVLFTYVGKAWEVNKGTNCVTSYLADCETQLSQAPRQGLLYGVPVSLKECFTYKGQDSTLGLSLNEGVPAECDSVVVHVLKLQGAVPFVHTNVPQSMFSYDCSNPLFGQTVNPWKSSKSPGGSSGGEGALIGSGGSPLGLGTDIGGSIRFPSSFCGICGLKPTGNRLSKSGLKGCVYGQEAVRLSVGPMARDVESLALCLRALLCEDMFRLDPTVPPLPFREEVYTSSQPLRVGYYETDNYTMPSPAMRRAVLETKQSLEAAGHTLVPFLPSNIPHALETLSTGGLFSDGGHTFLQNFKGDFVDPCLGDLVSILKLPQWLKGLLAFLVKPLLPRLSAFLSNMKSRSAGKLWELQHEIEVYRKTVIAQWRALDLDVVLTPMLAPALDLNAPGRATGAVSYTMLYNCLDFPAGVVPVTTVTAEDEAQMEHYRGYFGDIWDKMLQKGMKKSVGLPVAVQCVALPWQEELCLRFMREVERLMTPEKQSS

SMILES	IC50 (human recombinant MAGL) [nM]	IC50 (human recombinant FAAH) [nM]
COc1ccc(OC(=O)NCC2CCCCC2)cc1-c1cncc(-c2ccc[nH]2)c1 [Example 42, 3-(5-(1H-pyrrol-2-yl)pyridin-3-yl)-4-methoxyphenyl (cyclohexylmethyl)carbamate]	~10000	100 to 1000
COc1ccc(OC(=O)NCc2ccccc2)cc1-c1cncc(-c2ccc[nH]2)c1 [Example 43, 3-(5-(1H-pyrrol-2-yl)pyridin-3-yl)-4-methoxyphenyl benzylcarbamate]	> 10000	> 1000
COc1ccc(OC(=O)NC2CCCC2)cc1-c1cncc(-c2ccc[nH]2)c1 [Example 44, 3-(5-(1H-pyrrol-2-yl)pyridin-3-yl)-4-methoxyphenyl cyclopentylcarbamate]	> 10000	> 1000
COc1ccc(OC(=O)NC2CCCCC2)cc1-c1cncc(-c2ccc[nH]2)c1 [Example 45, 3-(5-(1H-pyrrol-2-yl)pyridin-3-yl)-4-methoxyphenyl cyclohexylcarbamate]	> 10000	> 1000
COc1ccc(OC(=O)NC2CCCCCC2)cc1-c1cncc(-c2ccc[nH]2)c1 [Example 46, 3-(5-(1H-pyrrol-2-yl)pyridin-3-yl)-4-methoxyphenyl cycloheptylcarbamate]	> 10000	100 to 1000
O=C(NCC1CCCCC1)Oc1cccc(-c2cncc(-c3ccco3)c2)c1 [Example 48, 3-(5-(furan-2-yl)pyridin-3-yl)phenyl (cyclohexylmethyl)carbamate]	~10000	10 to 100
O=C(NCc1ccccc1)Oc1cccc(-c2cncc(-c3ccco3)c2)c1 [Example 49, 3-(5-(furan-2-yl)pyridin-3-yl)phenyl benzylcarbamate]	> 10000	100 to 1000
O=C(NC1CCCC1)Oc1cccc(-c2cncc(-c3ccco3)c2)c1 [Example 50, 3-(5-(furan-2-yl)pyridin-3-yl)phenyl cyclopentylcarbamate]	~10000	10 to 100
O=C(NC1CCCCCC1)Oc1cccc(-c2cncc(-c3ccco3)c2)c1 [Example 52, 3-(5-(furan-2-yl)pyridin-3-yl)phenyl cycloheptylcarbamate]	~10000	10 to 100
CCCCCCCCNC(=O)Oc1ccc(OC)c(-c2cncc(-c3ccco3)c2)c1 [Example 53, 3-(5-(furan-2-yl)pyridin-3-yl)-4-methoxyphenyl octylcarbamate]	~10000	10 to 100
COc1ccc(OC(=O)NCC2CCCCC2)cc1-c1cncc(-c2ccco2)c1 [Example 54, 3-(5-(furan-2-yl)pyridin-3-yl)-4-methoxyphenyl (cyclohexylmethyl)carbamate]	~10000	100 to 1000
COc1ccc(OC(=O)NCc2ccccc2)cc1-c1cncc(-c2ccco2)c1 [Example 55, 3-(5-(furan-2-yl)pyridin-3-yl)-4-methoxyphenyl benzylcarbamate]	~10000	~1000
COc1ccc(OC(=O)NC2CCCC2)cc1-c1cncc(-c2ccco2)c1 [Example 56, 3-(5-(furan-2-yl)pyridin-3-yl)-4-methoxyphenyl cyclopentylcarbamate]	> 10000	100 to 1000
COc1ccc(OC(=O)NC2CCCCC2)cc1-c1cncc(-c2ccco2)c1 [Example 57, 3-(5-(furan-2-yl)pyridin-3-yl)-4-methoxyphenyl cyclohexylcarbamate]	> 10000	100 to 1000
COc1ccc(OC(=O)NC2CCCCCC2)cc1-c1cncc(-c2ccco2)c1 [Example 58, 3-(5-(furan-2-yl)pyridin-3-yl)-4-methoxyphenyl cycloheptylcarbamate]	> 10000	100 to 1000
CCCCCCCCNC(=O)Oc1cccc(-c2cncc(-c3cccs3)c2)c1 [Example 59, 3-(5-(thiophen-2-yl)pyridin-3-yl)phenyl octylcarbamate]	> 10000	10 to 100
O=C(NCC1CCCCC1)Oc1cccc(-c2cncc(-c3cccs3)c2)c1 [Example 60, 3-(5-(thiophen-2-yl)pyridin-3-yl)phenyl (cyclohexylmethyl)carbamate]	> 10000	10 to 100
O=C(NCc1ccccc1)Oc1cccc(-c2cncc(-c3cccs3)c2)c1 [Example 61, 3-(5-(thiophen-2-yl)pyridin-3-yl)phenyl benzylcarbamate]	> 10000	~100
O=C(NC1CCCC1)Oc1cccc(-c2cncc(-c3cccs3)c2)c1 [Example 62, 3-(5-(thiophen-2-yl)pyridin-3-yl)phenyl cyclopentylcarbamate]	~10000	10 to 100

SMILES	IC50 (human recombinant MAGL) [nM]	IC50 (human recombinant FAAH) [nM]
O=C(NC1CCCCC1)Oc1cccc(-c2cncc(-c3cccs3)c2)c1 [Example 63, 3-(5-(thiophen-2-yl)pyridin-3-yl)phenyl cyclohexylcarbamate]	> 10000	10 to 100
COc1ccc(OC(=O)NCC2CCCCC2)cc1-c1cncc(-c2cccs2)c1 [Example 66, 4-methoxy-3-(5-(thiophen-2-yl)pyridin-3-yl)phenyl (cyclohexylmethyl)carbamate]	~10000	100 to 1000
COc1ccc(OC(=O)NCc2ccccc2)cc1-c1cncc(-c2cccs2)c1 [Example 67, 4-methoxy-3-(5-(thiophen-2-yl)pyridin-3-yl)phenyl benzylcarbamate]	> 10000	> 1000
COc1ccc(OC(=O)NC2CCCC2)cc1-c1cncc(-c2cccs2)c1 [Example 68, 4-methoxy-3-(5-(thiophen-2-yl)pyridin-3-yl)phenyl cyclopentylcarbamate]	~10000	100 to 1000
COc1ccc(OC(=O)NC2CCCCC2)cc1-c1cncc(-c2cccs2)c1 [Example 69, 4-methoxy-3-(5-(thiophen-2-yl)pyridin-3-yl)phenyl cyclohexylcarbamate]	> 10000	100 to 1000
COc1ccc(OC(=O)NC2CCCCCC2)cc1-c1cncc(-c2cccs2)c1 [Example 70, 4-methoxy-3-(5-(thiophen-2-yl)pyridin-3-yl)phenyl cycloheptylcarbamate]	> 10000	100 to 1000
CCCCCNC(=O)Oc1cccc(-c2cncc(-c3ncco3)c2)c1 [Example 71, 3-(5-(oxazol-2-yl)pyridin-3-yl)phenyl pentylcarbamate]	> 10000	10 to 1000
CCCCCCCNC(=O)Oc1cccc(-c2cncc(-c3ncco3)c2)c1 [Example 72, 3-(5-(oxazol-2-yl)pyridin-3-yl)phenyl heptylcarbamate]	> 1000	1 to 10
CCCCCCCCNC(=O)Oc1cccc(-c2cncc(-c3ncco3)c2)c1 [Example 73, 3-(5-(oxazol-2-yl)pyridin-3-yl)phenyl octylcarbamate]	> 10000	1 to 10
O=C(NCC1CCCCC1)Oc1cccc(-c2cncc(-c3ncco3)c2)c1 [Example 74, 3-(5-(oxazol-2-yl)pyridin-3-yl)phenyl (cyclohexylmethyl)carbamate]	> 1000	10 to 100
O=C(NC1CCCC1)Oc1cccc(-c2cncc(-c3ncco3)c2)c1 [Example 75, 3-(5-(oxazol-2-yl)pyridin-3-yl)phenyl cyclopentylcarbamate]	> 10000	10 to 1000
O=C(NC1CCCCC1)Oc1cccc(-c2cncc(-c3ncco3)c2)c1 [Example 76, 3-(5-(oxazol-2-yl)pyridin-3-yl)phenyl cyclohexylcarbamate]	1000 to 10000	10 to 1000
O=C(NC12CC3CC(CC(C3)C1)C2)Oc1cccc(-c2cncc(-c3ncco3)c2)c1 [Example 77, 3-(5-(oxazol-2-yl)pyridin-3-yl)phenyl ((1s,3s)-adamantan-1-yl)carbamate]	> 10000	> 1000
CCCCCCCCNC(=O)Oc1ccc(OC)c(-c2cncc(-c3ncco3)c2)c1 [Example 78, 4-methoxy-3-(5-(oxazol-2-yl)pyridin-3-yl)phenyl octylcarbamate]	1000 to 10000	10 to 100
COc1ccc(OC(=O)NC2CCCC2)cc1-c1cncc(-c2ncco2)c1 [Example 80, 4-methoxy-3-(5-(oxazol-2-yl)pyridin-3-yl)phenyl cyclopentylcarbamate]	> 10000	10 to 100
COc1ccc(OC(=O)NC2CCCCC2)cc1-c1cncc(-c2ncco2)c1 [Example 81, 4-methoxy-3-(5-(oxazol-2-yl)pyridin-3-yl)phenyl cyclohexylcarbamate]	> 10000	10 to 100
COc1ccc(OC(=O)NC2CCC(C)CC2)cc1-c1cncc(-c2ncco2)c1 (stereo not shown) [Example 82, 4-methoxy-3-(5-(oxazol-2-yl)pyridin-3-yl)phenyl (4-methylcyclohexyl)carbamate]	> 10000	100 to 1000
CCCCCCCCNC(=O)Oc1cc(-c2cncc(-c3ncco3)c2)ccc1OC [Example 84, 2-methoxy-5-(5-(oxazol-2-yl)pyridin-3-yl)phenyl octylcarbamate]	~10000	100 to 1000
O=C(NC1CCCC1)Oc1ccc(F)c(-c2cncc(-c3ncco3)c2)c1 [Example 85, 4-fluoro-3-(5-(oxazol-2-yl)pyridin-3-yl)phenyl cyclopentylcarbamate]	> 10000	10 to 100
